The record followed here is patent publication US11197856B2, “Bicyclic compounds and methods for their use in treating autism” (priority 2013, dated 2021).

For one assay, the system named is cerebellar explants. Nature of the assay: Cerebellar explants, glutamate/3-nitropropionic acid neurotoxicity. It counts as cell-based, Wistar rats. The procedure:
Cover slips were placed into a large Petri dish and washed in 70% alcohol for 5 minutes, then washed with Millipore H2O. The cover slips were air dried, and coated with Poly-D-Lysine (1 mg/ml stock solution in PBS, 90-100 μl) for 2 hours at 34° C.
Postnatal day 8 Wistar rats were used for the study. The rats were sacrificed and placed in ice for 1 minute, decapitated and the cerebellum removed and placed on ice. Cerebellum tissue was placed in 1 ml of 0.65% glucose-supplemented PBS (10 μl 65% stock D (+)glucose/1 ml PBS) in a large Petri dish, chopped up into smaller sections and triturated with a 1 ml insulin syringe via a 23 G (0.4 mm) needle, and then squirted back into the glucose solution in the large Petri dish. The tissue was sieved through (125 μm pore size gauze) and centrifuged (2 minutes at 60 g) twice to exchange the medium into serum-free BSA-supplemented START V medium (Biochrom, Germany). The second centrifugation step was done with 1 ml of START V medium. The microexplants were reconstituted into 500 μl of START V medium and put on ice.
Two hours after PDL-coating, the slides were washed with Millipore H2O and air dried. Each slide was placed into a small Petri dish (diameter: 35 mm) and 40 μl of START V/cell suspension was added. The tissue was incubated for 2 hours at 34° C. (settlement period). START V-medium (1 ml) was then added to the Petri dish and cultivated at 34° C. in the presence of 5% CO2 in air at 100% humidity for 48 hours.
For the study, certain explant cultures were exposed to vehicle (PBS) only. In the first study (Study 1) 10 μl of toxin 1 (L-glutamate—100 mM in Millipore water; final concentration; 1 mM) and 10 μl of toxin 2 (3-nitropropionic acid—50 mM—pH 7—in Millipore water, final concentration: 0.5 mM) was applied simultaneously with the drug to be tested ([…]). In each case, the drugs were left in contact with the explants for the duration of the study.
After explants were exposed to drugs for the study period, cells were then rinsed in PBS and then fixed in increasing concentrations of paraformaldehyde (500 μl of 0.4% PFA was applied; then 1.2% PFA; then 3% PFA and finally 4% PFA (each fixation step: 2-3 minutes). Finally, the microexplants were rinsed in PBS.
Neurons in the explants were then evaluated for morphology (presence of neurites) and counted as live cells per microscopic field. Four fields displaying highest cell density were counted per cover slip and the data presented as mean±standard error of the mean (SEM); n=4 each. Statistical significance was evaluated by using the non-paired Student's t-test.

In assay [1] the test system is fmr1-knockout mice and wild-type littermates. Nature of the assay: Open Field (OF) test. It counts as in vivo. The note with it: for exploratory behavior (number of squares entered): fmr1-knockout animals; for number of squares entered: wild-type animals. The procedure:
The fmr1-knockout 2 mice (C57BL/6 background) were housed in groups of the same genotype in a temperature and humidity controlled room with a 12-h light-dark cycle (lights on 7 am to […]). Testing was conducted during the light phase. Food and water were available ad libitum. Testing was conducted on fmr1-knockout mice and their wild-type littermates. Experiments were conducted in line with the requirements of the UK Animals (Scientific Procedures) Act, 1986.
The Open Field (OF) test is a combined test that is used to determine anxiety/hyperactivity, and for habituation to a novel environment, one of the most elementary forms of learning, in which decreased exploration as a function of repeated exposure to the same environment is taken as an index of memory. This is normally studied in two sessions of exposure to the open field, a 10-min and a 24 hr habituation session.
The device used for this study is a grey PVC enclosed arena 50×30 cm divided into 10 cm squares. Mice are brought to the experimental room 5-20 min before testing. A mouse is placed into a corner square facing the corner and observed for 3 min. The number of squares entered (whole body) and rears (both front paws off the ground, but not as part of grooming) are counted. The latency to the first rear is also noted. The movement of the mouse around the field was recorded with a video tracking device for 300s (vNT4.0, Viewpoint). The latency for the mouse to enter the brightest, central part of the field total time spent in this central region, and total activity (in terms of path length in centimeters), were recorded.
The open field (OF) test is a test used to characterize explorative behavior, anxiety, and or hyperactivity in animals habituated to daily handling under novel and familiar conditions. During exposure to the open field mice will habituate to the environment and thus explore less, decreasing the amount movement they show over time.
In the present experiment, we recorded movement and rearing during an initial exposure (T1), during a second exposure after 10 minutes (T2) and during a third exposure after 24 hours (T3). Failures to reduce locomotion or rearing at 10 minutes and 24 hours indicate deficits in short and long term memory, respectively.

For assay [2], the system named is fmr1-knockout mice and wild-type mice. Nature of the assay: Marble burying. It counts as in vivo. As for the experimental part: Mice were placed in an enclosed environment with a bed of wood shavings. Ten (10) marbles were introduced into the environment, and the number of marbles buried was determined by visual observation (median±interquartile range (IQR)).

The subject of another assay is MeCP2 deficient mice. Nature of the assay: Seizure activity, electroencephalograph recordings in MeCP2 deficient mice. The format is in vivo. An excerpt: Electroencephalograph: recordings of wild-type mice and MeCP2 deficient mice treated with either saline or cG-2-AllylP are obtained using methods described in U.S. Pat. No. 7,714,020, incorporated fully by reference.

Another assay concerns p-ERK1/2. Nature of the assay: Phospho-flow cytometry of lymphocytes, p-ERK1/2. The format is in vivo. To be noted: fmr1-knockout mice; 15, 30, 60 and 240 minutes after a single treatment. From the text:
Lymphocytes are isolated from five fmr1-knockout and five wild-type titter mate control mice, per study time after injection with cG-2-AllylP. Lymphocytes are examined for activation of two signaling effectors, p-ERK1/2 and p-Akt using phosphorylation status as a measure of activation by flow cytometry (phospho-flow).
1. Flow cytometry total and phosphorylated ERK in lymphocytes
A general note: In flow cytometry, cells or beads pass a laser one at a time.

For assay [3], the system named is Male patients having Fragile X Syndrome.
Protocol: Symptoms are evaluated using one or more of the clinical evaluative tools discussed herein above. Each patient is scored according to one or more clinical evaluative tool for one or more of Repetitive Behavior (RBB), Anxiety, and Sociability. A Clinical Global Impression-Severity (CGI-S) score of 4 or greater, or an ABC total score of 30 or greater are enrolled.
The enrolled patients are divided into groups. […] Placebo (n=20) is strawberry diluent and water.
Efficacy is determined using Clinical Global Impression of Severity (CGI-S), Clinical Global Impression of Improvement (CGI-I), Fragile X Syndrome Rating Scale, clinician-completed Fragile X Domain Specific Concerns (Visual Analog Scale), Caregiver Top Three Concerns (Visual Analogue Scale), Aberrant Behavior Checklist, Vineland Adaptive Behavior Scale, CASI-16, CYBOCS-PDD, seizure diary, computerized eye tracking, computerized measurement of cognition using the KiTap, and the Expressive Language Sampling Task.
Serum levels and changes of standard hematology and chemistry parameters (including thyroid function) are calculated from Baseline through to Day 70. Fundoscopy and tonsil size is documented at Baseline, and Days 14, 28, 42, 36, 70 and 84. […] ECG is assessed at Screening, Baseline, Days 28, 42, 36 and 70. […]

As to `C=CC[C@]12CCCN1C(=O)CNC2=O` [cG-2-AllylP, (8aS)-Allyl-hexahydropyrrolo[1,2-a]pyrazine-1,4-dione], the “numbers of cells having neurites” value in the assay on cerebellar explants (administered simultaneously with glutamate) is on record as “significantly increased the numbers of cells having neurites in a dose-dependent manner”. In addition, the glutamate-induced neurotoxicity result in the assay on cerebellar explants (low doses (cG-2-AllylP: 100 pm to 10 nm)) is “significant decrease in glutamate-induced neurotoxicity”. Besides, in assay [1] (T1), the “exploratory behavior (number of squares entered)” value (“exploratory behavior” below) is “significantly reduced the exploratory behavior of fmr1-knockout animals” and the “number of squares entered” value is recorded as “about the same number of squares”. In addition, in assay [1] (T2 (10 minutes)), the “exploratory behavior” value was “normalized the magnitude of their behavior to that of the wild-type animals” and the “number of squares entered” value is given as “about 45 squares”. For the same compound, in assay [1] (T3 (24 hours)), the “exploratory behavior” value is reported as “normalized exploratory behavior at T3” and the “number of squares entered” value is 25-30 squares. In assay [2] (fmr1-knockout animals), the marbles buried was determined as 80% and the “number of marbles buried (median)” value is given as 8 of 10 marbles. Besides, in assay [2] (wild-type mice), the marbles buried is listed as 100% and the “number of marbles buried” value is given as 10 out of 10. The “motor seizures and non-convulsive seizures” value in the assay with MeCP2 deficient mice is “effective in decreasing both motor seizures and non-convulsive seizures”. For the same compound, the “mean fluorescent intensity (MFI) for p-ERK1/2” value with p-ERK1/2 is given as “decreases at all time points”. The “clinical outcomes (evaluative tools)” value in assay [3] (35 or 70 mg/kg b.i.d. oral, 28 days) was “clinically relevant and significant effects to improve clinical outcomes”. In addition, the “pERK and pAkt levels” value in assay [3] (peripheral lymphocytes) was “normalizes pERK and pAkt levels”.
